Experimental data taken from PubChem BioAssay (NCI).
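A five-concentration, 48-hour dose response in 96-well plates underlies each endpoint, interpolated linearly between surrounding concentrations. TGI: total growth inhibition.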

How the values were obtained:
Assay in all cases: NCI tumour cell line growth inhibition, 48 h
[1] = tested on: HS 578T breast
[2] = tested on: DMS 273 small cell lung
[3] = tested on: K-562 leukemia
[4] = tested on: PC-3 prostate
[5] = tested on: LXFL 529 NSCLC
[6] = tested on: LOX IMVI melanoma
[7] = tested on: CCRF-CEM leukemia
[8] = tested on: SNB-19 CNS
[9] = tested on: XF 498 CNS
[10] = tested on: OVCAR-3 ovarian
[11] = tested on: HT29 colon
[12] = tested on: MDA-MB-435
[13] = tested on: HCC-2998 colon
[14] = tested on: SK-MEL-5 melanoma
[15] = tested on: MDA-MB-231 breast
[16] = tested on: ACHN renal
[17] = tested on: DLD-1 colon
[18] = tested on: MDA-N
[19] = tested on: IGROV1 ovarian
[20] = tested on: KM12 colon
[21] = tested on: SF-268 CNS
[22] = tested on: DMS 114 small cell lung
[23] = tested on: UO-31 renal
[24] = tested on: EKVX NSCLC
[25] = tested on: DU-145 prostate
[26] = tested on: SK-MEL-28 melanoma
[27] = tested on: COLO 205 colon
[28] = tested on: SK-MEL-2 melanoma
[29] = tested on: OVCAR-8 ovarian
[30] = tested on: OVCAR-4 ovarian
[31] = tested on: U251 CNS
[32] = tested on: BT-549 breast
[33] = tested on: HL-60(TB) leukemia
[34] = tested on: NCI-H460 lung
[35] = tested on: 786-0 renal
[36] = tested on: MCF7 breast
[37] = tested on: TK-10 renal
[38] = tested on: SW-620 colon
[39] = tested on: HCT-116 colon
[40] = tested on: SNB-75 CNS
[41] = tested on: SNB-78 CNS
[42] = tested on: SF-539 CNS
[43] = tested on: SN12C renal
[44] = tested on: SR leukemia
[45] = tested on: SK-OV-3 ovarian
[46] = tested on: A549 NSCLC
[47] = tested on: CAKI-1 renal
[48] = tested on: UACC-62 melanoma
[49] = tested on: M19-MEL melanoma
[50] = tested on: HOP-62 NSCLC
[51] = tested on: M14 melanoma
[52] = tested on: MOLT-4 leukemia
[53] = tested on: SF-295 CNS
[54] = tested on: OVCAR-5 ovarian
[55] = tested on: MALME-3M melanoma
[56] = tested on: NCI-H522 lung
[57] = tested on: NCI-H226 lung
[58] = tested on: HOP-92 NSCLC
[59] = tested on: RPMI-8226 leukemia
[60] = tested on: NCI/ADR-RES ovarian
[61] = tested on: A498 renal
[62] = tested on: RXF 393 renal
[63] = tested on: KM20L2 colon
[64] = tested on: NCI-H23 lung
[65] = tested on: HCT-15 colon
[66] = tested on: T-47D breast
[67] = tested on: UACC-257 melanoma

With `O=c1c2ccccc2sc2nc(CCl)nn12` the TGI [1] was 38.1 µM, the TGI [2] was 22.2 µM and the TGI [3] was 28.9 µM. The TGI [4] was 10.7 µM, the TGI [5] was 62.5 µM and the TGI [6] was over 100 µM. For the same molecule, the TGI [7] was over 100 µM, the TGI [8] was over 100 µM and the TGI [9] was 1.82 µM. The TGI [10] was over 100 µM, the TGI [11] was 66 µM and the TGI [12] was 29.6 µM. For the same molecule, the TGI [13] was 31.4 µM, the TGI [14] was over 100 µM and the TGI [15] was 23.4 µM. For the same molecule, the TGI [16] was 21.6 µM, the TGI [17] was 21.3 µM and the TGI [18] was 17.3 µM. It also gave a TGI [19] of 49.5 µM, a TGI [20] of over 100 µM and a TGI [21] of 60.6 µM. It also gave a TGI [22] of 48.6 µM, a TGI [23] of 22.8 µM and a TGI [24] of 29.1 µM. It also gave a TGI [25] of 21.2 µM, a TGI [26] of 28.3 µM and a TGI [27] of 30.2 µM. It also gave a TGI [28] of over 100 µM, a TGI [29] of over 100 µM and a TGI [30] of over 100 µM. For the same molecule, the TGI [31] was over 100 µM, the TGI [32] was over 91.6 µM and the TGI [33] was 44.3 µM. It also gave a TGI [34] of 16.5 µM, a TGI [35] of 34.1 µM and a TGI [36] of 36.3 µM. For the same molecule, the TGI [37] was 25.4 µM, the TGI [38] was 45.6 µM and the TGI [39] was 16.3 µM. It also gave a TGI [40] of 55.2 µM, a TGI [41] of over 100 µM and a TGI [42] of over 80.4 µM. It also gave a TGI [43] of 29.4 µM, a TGI [44] of 37.7 µM and a TGI [45] of 37.5 µM. The TGI [46] was 93 µM, the TGI [47] was 22.3 µM and the TGI [48] was 17 µM. The TGI [49] was over 62.8 µM, the TGI [50] was over 100 µM and the TGI [51] was 60.3 µM. For the same molecule, the TGI [52] was over 100 µM, the TGI [53] was over 82.9 µM and the TGI [54] was over 100 µM. It also gave a TGI [55] of 49.4 µM, a TGI [56] of 67.8 µM and a TGI [57] of over 100 µM. The TGI [58] was 14.8 µM, the TGI [59] was over 100 µM and the TGI [60] was over 100 µM. For the same molecule, the TGI [61] was 8.42 µM, the TGI [62] was 24.5 µM and the TGI [63] was 38 µM. For the same molecule, the TGI [64] was 28.5 µM, the TGI [65] was 18.7 µM and the TGI [66] was 19.9 µM. It also gave a TGI [67] of 32.9 µM.

With `C=CCN1C(=O)C(=O)N(CC=C)C(=O)C1=O` the TGI [2] was over 100 µM, the TGI [3] was over 100 µM and the TGI [5] was over 100 µM. The TGI [6] was over 100 µM, the TGI [7] was over 100 µM and the TGI [8] was over 100 µM. The TGI [9] was over 100 µM, the TGI [10] was over 100 µM and the TGI [11] was over 100 µM. For the same molecule, the TGI [13] was over 100 µM, the TGI [14] was over 100 µM and the TGI [17] was over 100 µM. For the same molecule, the TGI [19] was over 100 µM, the TGI [20] was over 100 µM and the TGI [21] was over 100 µM. It also gave a TGI [22] of over 100 µM, a TGI [23] of over 100 µM and a TGI [24] of over 100 µM. For the same molecule, the TGI [27] was over 100 µM, the TGI [29] was over 100 µM and the TGI [30] was over 100 µM. For the same molecule, the TGI [31] was over 100 µM, the TGI [33] was over 100 µM and the TGI [34] was over 100 µM. The TGI [35] was over 100 µM, the TGI [37] was over 100 µM and the TGI [38] was over 100 µM. The TGI [39] was over 100 µM, the TGI [40] was over 100 µM and the TGI [41] was over 100 µM. The TGI [42] was over 100 µM, the TGI [43] was over 100 µM and the TGI [44] was over 100 µM. It also gave a TGI [45] of over 100 µM, a TGI [46] of over 100 µM and a TGI [47] of over 100 µM. For the same molecule, the TGI [48] was over 100 µM, the TGI [49] was over 100 µM and the TGI [50] was over 100 µM. For the same molecule, the TGI [51] was over 100 µM, the TGI [52] was over 100 µM and the TGI [53] was over 100 µM. For the same molecule, the TGI [54] was over 100 µM, the TGI [55] was over 100 µM and the TGI [56] was over 100 µM. The TGI [57] was over 100 µM, the TGI [58] was over 100 µM and the TGI [59] was over 100 µM. It also gave a TGI [61] of over 100 µM, a TGI [62] of over 100 µM and a TGI [63] of over 100 µM. For the same molecule, the TGI [64] was over 100 µM, the TGI [65] was over 100 µM and the TGI [67] was over 100 µM.
